These results are taken from the Deep4Chem optical property database.

The structures appear in SMILES notation.

The nature of this data set: solvent given as SMILES.

`Nc1ccc(/C=C2\OC(=O)c3ccccc32)cc1`: the emission maximum is on record as 547.95 nm (in CC#N); 390.02 nm (in CC(C)=O); 547.65 nm (in CC(C)CO); 548.25 nm (in CC(C)O); 549.75 nm (in CCCO); 552.49 nm (in CCO). Moreover, the emission maximum by setting is: (in CCOC(C)=O) 503.52 nm; (in CCOCC) 485.91 nm; (in CO) 552.49 nm.

As for `CC(C)[Si](C#Cc1c2cc3ccccc3cc2c(C#Cc2ccc(Br)cc2)c2cc3ccccc3cc12)(C(C)C)C(C)C`, where the note is “in ClCCl”, the emission maximum is recorded as 663 nm.

With `Nc1ccc(-c2ccc3c(c2)C(=O)c2ccccc2C3=O)cc1`, the emission maximum reads like this: (in CCCCCC) 512 nm; (in CCOCC) 643 nm; (in Cc1ccccc1) 599 nm; (in ClC(Cl)(Cl)Cl) 562 nm; (in ClCCl) 695 nm.

As for `N#CC(C#N)=Cc1cn(-c2ccccc2)nc1-c1ccccc1`, the emission maximum is, setting by setting: (in C1CCOC1) 427 nm; (in C1COCCO1) 426 nm; (in CCO) 426 nm; (in CCOC(C)=O) 427 nm; (in CN(C)C=O) 438 nm; (in CO) 426 nm. The emission maximum by setting is: (in CS(C)=O) 443 nm; (in Cc1ccccc1) 430 nm; (in ClC(Cl)Cl) 432 nm; (in ClCCl) 430 nm.

As to `CC(C)(C(=O)c1ccc(N2c3ccccc3Oc3ccccc32)cc1)C(=O)c1ccc(N2c3ccccc3Oc3ccccc32)cc1`, the emission maximum was 562 nm (in Cc1ccccc1) and 520.81 nm (in c1ccc2c(c1)c1ccccc1n2-c1ccc(-c2ccc(-n3c4ccccc4c4ccccc43)cc2)cc1).

Where the note is “in O”, `CC1(CCCCC(=O)NCCCCCCO)C(/C=C/C=C/C=C2/N(CCCS(=O)(=O)[O-])c3ccc(S(=O)(=O)[O-])cc3C2(C)C)=[N+](CCCS(=O)(=O)[O-])c2ccc(S(=O)(=O)[O-])cc21` (stereo not drawn) showed an emission maximum of 672 nm.

Take `c1ccc(C2=C(c3ccccc3)c3cccc4c3c(cc3nc5cc(-c6ccc(N(c7ccccc7)c7ccccc7)cc6)c(-c6ccc(N(c7ccccc7)c7ccccc7)cc6)cc5nc34)O2)cc1`: the emission maximum (in ClCCl) stood at 568 nm.

For `CC(C)(C)c1ccc(-c2nc(-c3ccc(C(C)(C)C)cc3)nc(-c3ccc(-n4c5ccccc5c5c6oc7ccccc7c6ccc54)c(C#N)c3)n2)cc1`, the emission maximum (in C1CCOC1) stood at 450.74 nm.

As for `O=C1CCCC2=C1CC1=C(CCCC1=O)N2NC(=O)c1ccc(O)cc1`, the emission maximum runs as follows: (in CC#N) 434 nm; (in CC(C)=O) 432 nm; (in CCCCCO) 447 nm; (in CO) 449 nm; (in ClC(Cl)Cl) 444 nm; (in ClCCl) 436 nm.

Regarding `CCCCN(CCCC)c1ccc2c#cc3cc4c#cc5ccc(N(CCCC)CCCC)cc5c#cc#cc5cc(C(F)(F)F)ccc5c#cc4cc3c#cc3ccc(C(F)(F)F)cc3c#cc#cc2c1`, the emission maximum turned out to be 544 nm (in ClCCl) and 501 nm (in c1ccccc1).

In the case of `N#C/C(=N/Nc1ccc(C#N)cc1)c1nc(-c2ccccc2)cs1`, the emission maximum is, setting by setting: (in CCO) 486 nm; (in Cc1ccccc1) 490 nm; (in ClCCl) 492 nm.

Regarding `FC(F)(F)c1ccc(/C=C/c2nc3c(ccc4ccccc43)s2)cc1`, the emission maximum reads like this: (in C1CCCCC1) 432 nm; (in CC#N) 445 nm.

In turn, `N#CC(C#N)=C(c1ccc(N(c2ccccc2)c2ccccc2)cc1)c1ccc(N(c2ccccc2)c2ccccc2)cc1` displayed an emission maximum (in C1CCCCC1) of 413.3 nm; an emission maximum (in CC(C)=O) of 505.58 nm; an emission maximum (in CN(C)C=O) of 515.24 nm; an emission maximum (in Cc1ccccc1) of 439.48 nm; an emission maximum (in ClC(Cl)Cl) of 491.2 nm.

`COC(=O)C(NC(=O)CCNc1cccc2ccccc12)C(C)C` (stereo not drawn) showed an emission maximum (in CCO) of 415 nm.

Under “in ClCCl”, `O=C1c2ccccc2-c2nc3c(F)c(F)c(F)c(F)c3n21` registered an emission maximum of 485 nm.

The compound `C[Si](C)(C)c1sc([Si](C)(C)C)c2c1sc1c3sc4c(sc5c4sc4c([Si](C)(C)C)sc([Si](C)(C)C)c45)c3sc12` gave an emission maximum (in ClC(Cl)Cl) of 442 nm.

In the case of `c1cc2c3c(c1)ccc1[n+]3[B-]3(Oc4cccc5ccc6[n+](c45)[B-](O2)(O3)n2c-6cc3c4ccccc4c4ccccc4c32)n2c-1cc1c3ccccc3c3ccccc3c12`, the emission maximum (in ClCCl) came to 568 nm.

`CC(C)c1cccc(C(C)C)c1N1C(=O)c2cccc3c(Oc4ccc(C(C)(C)c5ccccc5)cc4)ccc(c23)C1=O`: the emission maximum (in ClCCl) was 435 nm.

With `CC(C)[Si]1(C(C)C)c2cc(C#N)ccc2-c2ccc(N(C)C)cc21`, the emission maximum was 410 nm (in C1CCCCC1); 464 nm (in CC#N); 456 nm (in CCO); 423 nm (in CCOCC); 473 nm (in CS(C)=O); 442 nm (in ClCCl). In addition, the emission maximum (in c1ccccc1) was found to be 422 nm.

In turn, `CCOC(=O)COc1ccc(/C=C/C2=[N+]3C(=Cc4c5ccccc5c(-c5[nH]c(C)cc5C)n4[B-]3(F)F)C(C)=C2)cc1` yielded an emission maximum (in ClCCl) of 705 nm.

`N#Cc1c2nc3ccccn3c2nc2c1nc1ccccn12`: the emission maximum stood at 460 nm (in C1CCCCC1); 470 nm (in C1COCCO1); 495 nm (in CC#N); 515 nm (in CN(C)C=O); 475 nm (in ClC(Cl)Cl).

As for `COc1c2ccccc2c(OC)c2c(C#CC(C)(C)C)c3cc4sccc4cc3c(C#CC(C)(C)C)c12`, the emission maximum (in ClCCl) came out at 634 nm.

For the compound `CCn1c(-c2ccc(OC)cc2)c(-c2ccc3ccccc3c2)c(-c2ccc3ccccc3c2)c1-c1ccc(OC)cc1`, under “in CCOC(C)=O”, the emission maximum stood at 404 nm.

As for `CCC1(CC)c2cc(C#Cc3cc(C#Cc4ccc5c(c4)C(CC)(CC)c4cc(N(c6ccccc6)c6ccccc6)ccc4-5)c4ccc5c(C#Cc6ccc7c(c6)C(CC)(CC)c6cc(N(c8ccccc8)c8ccccc8)ccc6-7)cc(C#Cc6ccc7c(c6)C(CC)(CC)c6cc(N(c8ccccc8)c8ccccc8)ccc6-7)c6ccc3c4c65)ccc2-c2ccc(N(c3ccccc3)c3ccccc3)cc21`, the emission maximum by setting is: (in C1CCCCC1) 524 nm; (in C1CCOC1) 552 nm; (in CCOC(C)=O) 545 nm; (in CN(C)C=O) 557 nm; (in Cc1ccccc1) 535 nm; (in ClC(Cl)Cl) 545 nm. In addition, the emission maximum (in ClCCl) stood at 567 nm.

Regarding `CC1(C)c2ccccc2N(c2ccc(C(=CC#N)c3ccc(N4c5ccccc5C(C)(C)c5ccccc54)cc3)cc2)c2ccccc21`, for the setting “in Cc1ccccc1”, the emission maximum turned out to be 519 nm.

For `O=C(c1ccc(/C(=C(/c2ccccc2)c2ccc(C(=O)c3ccc(-n4c5ccccc5c5ccccc54)cc3)cc2)c2ccccc2)cc1)c1ccc(-n2c3ccccc3c3ccccc32)cc1`, the emission maximum (in C1CCOC1) amounted to 502 nm.

`C[C@]12SC(=O)C=C1c1nc(-c3ccccc3)[nH]c1C1=CC(=O)S[C@@]12C` yielded an emission maximum (in CC#N) of 513 nm.

In turn, `C#CCOc1ccc(/C=C/C2=[N+]3C(=C(c4ccccc4)c4c(C)cc(C)n4[B-]3(F)F)C(C)=C2)cc1` registered an emission maximum (in CO) of 574 nm.

Take `CN(C)c1[se]c(-c2ccc(Cl)cc2)nc1-c1ccccc1`: the emission maximum (in ClC(Cl)Cl) is 455 nm.

Under “in CS(C)=O”, `O=C1CCCC2=C1C(c1ccc([N+](=O)[O-])cc1)c1c(c3ccccc3oc1=O)N2` (stereo not drawn) yielded an emission maximum of 441 nm.

With `CC1=[N+]2C(=C(c3ccc(N(c4ccccc4)c4ccccc4)cc3)c3ccc(C)n3[B-]2(F)F)C=C1c1cc2n(c1)[B-](F)(F)[N+]1=CC=CC1=C2c1c(C)cc(C)cc1C`, the emission maximum reads like this: (in C1CCCCC1) 645 nm; (in CCOC(C)=O) 680 nm.

In the case of `CCCCCn1c2ccccc2c(=O)c2ccccc21`, the emission maximum by setting is: (in CS(C)=O) 414 nm; (in O) 428 nm.

Take `Fc1ccccc1-c1nc2sc3ccccc3c2s1`: where the note is “in CS(C)=O”, the emission maximum is given as 407 nm.

`COc1cccc2cc(-c3ccc([N+](=O)[O-])cc3)c(=O)oc12`: the emission maximum by setting is: (in C1CCOC1) 373 nm; (in CC#N) 363 nm; (in CS(C)=O) 385 nm; (in ClC(Cl)Cl) 377 nm.

Take `Nc1ccc2cc(-c3ccc(C(F)(F)F)cc3)oc(=O)c2c1`: the emission maximum is 439 nm (in CC(C)=O); 418 nm (in CCCCCC); 460 nm (in CCCCO); 459 nm (in CCCO); 460 nm (in CCO); 436 nm (in CCOC(C)=O). Moreover, the emission maximum was determined as 448 nm (in CN(C)C=O), 461 nm (in CO) and 438 nm (in ClC(Cl)Cl).

Consider `CSc1ccc(/C=C/c2ccncn2)cc1`, for which, for the setting “in ClCCl”, the emission maximum was determined as 435 nm.

`CCN1\C(=C/C=C/C=C/C2=[N+](CC)c3ccc4cc(Br)ccc4c3C2(C)C)C(C)(C)c2c1ccc1cc(Br)ccc21`: the emission maximum runs as follows: (in C1CCOC1) 709 nm; (in CC#N) 699 nm; (in CC(C)=O) 703 nm; (in CCO) 705 nm; (in CN(C)C=O) 705 nm; (in CO) 702 nm. Further, the emission maximum came out at 709 nm (in CS(C)=O) and 714 nm (in ClCCl).

As to `Cc1ccc(C(=O)OCc2ccc3c4cccc5cccc(c6cccc2c63)c54)cc1`, the emission maximum (in CCO) is 445 nm.

On to `O=C1c2ccccc2-c2ccccc21`, for which the emission maximum amounted to 463 nm (in C1CCCCC1), 507 nm (in CC#N), 553 nm (in CCO) and 485 nm (in c1ccccc1).

Consider `COc1ccc(N(c2ccc(OC)cc2)c2ccc3c4cccc5c(N(c6ccc(OC)cc6)c6ccc(OC)cc6)ccc(c6cccc2c63)c54)cc1`, for which the emission maximum runs as follows: (in C1CCCCC1) 551 nm; (in C1CCOC1) 583 nm; (in CC#N) 598 nm; (in Cc1ccccc1) 574 nm; (in ClCCl) 591 nm.
